Values quoted from earlier work in US6072029A, “Derivatives of human α1 -antitrypsin and process for their preparation” (priority 1984, dated 2000).
Where two headings read alike, the source gives them in different places.

Test system: thrombin

Substance: α1 -AT: natural human α1-antitrypsin, serine protease inhibitor
- inactivation of thrombin (increasing molar excess of α1-antitrypsin): completely inhibited
- inactivation of thrombin (molar ratio of 1:1): weak and incomplete
